From patent publication US6461997B1, “Triazole sulfones having herbicidal activity” (Monsanto Technology LLC, priority 1999, dated 2002)

Experiments:
DATST (jimsonweed) = assay: Pre-plant incorporated (PPI) herbicidal activity, warm season; format: in vivo, Datura stramonium; details: for inhibition at 10 g/ha / inhibition at 30 g/ha / inhibition at 100 g/ha / inhibition at 300 g/ha / inhibition at 900 g/ha: Datura stramonium, read-out: Percent inhibition DATST; for inhibition at 10 g/ha / inhibition at 30 g/ha / inhibition at 100 g/ha / inhibition at 300 g/ha / inhibition at 900 g/ha / Percent inhibition DATST: PPI application; for PPI activity (GR80) DATST: pre-plant incorporated, GR80 = lowest tested rate with 80% or greater inhibition, approx. 14 days after treating, 30/21° C.
Experimental: (§1) In another set of tests, the pre-plant incorporated (PPI) activity of compounds of this invention was evaluated on the same species as for the pre-emergence tests described above. In the PPI tests the following procedure, designed to simulate PPI application, was used.
(§2) A pre-prepared topsoil mixture (described above) was placed in a pot and compacted to a depth of 1.0 to 1.25 cm from the top of the pot. Seeds of each of several monocotyledonous and dicotyledonous annual plant species were placed on top of the soil. A sufficient quantity of soil to cover the seeds and level fill the pot was weighed into an open container. A known amount of the test compound was dissolved or suspended in an organic solvent and applied by spraying to this cover soil. The cover soil was thoroughly mixed to distribute the test compound throughout the cover soil, and was then applied as a cover layer over the seeds. Untreated soil was used as a cover layer for control pots. After treatment the plants were placed in a greenhouse where they received 0.64 cm of overhead irrigation. All subsequent watering consisted of a light overhead mist and/or subirrigation as needed for germination and growth. Tables 9 and 10 below relate to warm season plant species which were placed after pre-emergence treatment in a greenhouse with a 30/21° C. day/night temperature regime. Tables 11 and 12 below relates to cool season plant species placed after pre-emergence treatment in a greenhouse or growth chamber with an 18/13° C. day/night temperature regime. Only the compounds of Examples 1, 6, 8, 11, 13 and 15-20 were included in PPI tests.
(§3) Approximately 14 days after planting and treating, the plants were observed and herbicidal efficacy recorded as percent inhibition by comparison with untreated plants.

[1] = tested on: GALAP (catchweed bedstraw); assay: Pre-plant incorporated (PPI) herbicidal activity, cool season; format: in vivo, Galium aparine; details: for inhibition at 30 g/ha / inhibition at 100 g/ha / inhibition at 300 g/ha / inhibition at 900 g/ha: Galium aparine, read-out: Percent inhibition GALAP; for inhibition at 30 g/ha / inhibition at 100 g/ha / inhibition at 300 g/ha / inhibition at 900 g/ha / Percent inhibition GALAP: weed, PPI application; for PPI activity GR80, GALAP: pre-plant incorporated, lowest tested rate with 80% or greater inhibition, about 14 days
Experimental: as §1, §2, §3

[2] = tested on: AGRRE (quackgrass (seedling)); assay: Post-emergence herbicidal activity, cool season; format: in vivo, Elymus repens; details: abraded plants sprayed at 300, 100, 30 and 10 g/ha; about 14 days after treatment
Experimental: (§4) In another set of tests, the post-emergence activity of compounds of this invention was evaluated on the cool season species listed above. The following procedure was used.
(§5) A pre-prepared topsoil mixture (described above) was placed in a pot and compacted to a depth of 1.0 to 1.25 cm from the top of the pot. Seeds of each of several monocotyledonous and dicotyledonous annual plant species were placed on top of the soil. The seeds were covered with a mixture of 50% topsoil and 50% Rediearth™ in sufficient quantity to level-fill the pots. The pots were then placed on a greenhouse bench and subirrigated as needed.
(§6) When plants growing from the seeds had emerged and reached a suitable growth stage for post-emergence treatment, typically 9 to 14 days after planting, above-ground parts of the plants were subjected to a pre-treatment involving abrasion to create greater opportunity for foliar uptake of subsequently applied compounds. Abrasion was performed using garnet 200w particles applied with a Sears Craftsman hand-held sandblaster operated at approximately 850 kPa (50 psig) pressure.
(§7) A known amount of each test compound dissolved or suspended in an appropriate organic solvent was diluted with a 50:50 mix of acetone and water and applied to the plants by spraying with a standard spray nozzle in a spray volume of […] at a spray pressure of 511 kPa (30 psig). Only the compounds of Examples 1, 8-15 and 17-22 were included in post-emergence tests. Application rates for these compounds were 300, 100, 30 and 10 g/ha. Control plants were abraded but not sprayed.
(§8) After treatment the plants were placed in a greenhouse with an 18/13° C. day/night temperature regime and were subsequently watered as needed for growth. Approximately 14 days after treatment, the plants were observed and herbicidal efficacy recorded as percent inhibition by comparison with control plants. GR80 values were assigned for each compound as described above for the pre-emergence tests.

LOLMG (annual ryegrass) = assay: Pre-plant incorporated (PPI) herbicidal activity, cool season; format: in vivo, Lolium multiflorum; details: for inhibition at 30 g/ha / inhibition at 100 g/ha / inhibition at 300 g/ha / inhibition at 900 g/ha: Lolium multiflorum, read-out: Percent inhibition LOLMG; for inhibition at 30 g/ha / inhibition at 100 g/ha / inhibition at 300 g/ha / inhibition at 900 g/ha / Percent inhibition LOLMG: weed, PPI application; for PPI activity GR80, LOLMG: pre-plant incorporated, lowest tested rate with 80% or greater inhibition, about 14 days
Experimental: as §1, §2, §3

[3] = tested on: AEGCY (jointed goatgrass); assay: as above; format: in vivo, Aegilops cylindrica; details: for inhibition at 30 g/ha / inhibition at 100 g/ha / inhibition at 300 g/ha / inhibition at 900 g/ha: Aegilops cylindrica, read-out: Percent inhibition AEGCY; for inhibition at 30 g/ha / inhibition at 100 g/ha / inhibition at 300 g/ha / inhibition at 900 g/ha / Percent inhibition AEGCY: weed, PPI application; for PPI activity GR80, AEGCY: pre-plant incorporated, lowest tested rate with 80% or greater inhibition, about 14 days
Experimental: as §1, §2, §3

barley (HORVX) = assay: Selectivity test, PPI, cool season crop; format: in vivo, Hordeunm vulgare; details: PPI application; for inhibition at 30 g/ha / inhibition at 100 g/ha / inhibition at 300 g/ha / inhibition at 900 g/ha: Hordeum vulgare, read-out: Percent inhibition HORVX
Experimental: as §2, §3
Additional pre-emergence and PPI tests were conducted by the procedures described above, on warm and cool season weed species in the presence of crop species, to assess herbicidal selectivity. Crop species included in warm season tests were corn (Zea mays, ZEAMX), rice (Oryza sativa, ORYSA) and soybean (Glycine max, GLYMX). Crop species included in cool season tests were wheat (Triticum aestivum, TRZAW), barley (Hordeunm vulgare, HORVX) and oilseed rape (Brassica napus, BRSNS).
Tables 15 and 16 relate to pre-emergence and PPI tests respectively on warm season species. Table 17 relates to pre-emergence tests on cool season species.

[4] = tested on: AGSST (creeping bentgrass); assay: Post-emergence herbicidal activity, cool season; format: in vivo, Agrostis stolonifera; details: abraded plants sprayed at 300, 100, 30 and 10 g/ha; about 14 days after treatment
Experimental: as §4, §5, §6, §7, §8

CCN(CC)C(=O)n1cnc(S(=O)(=O)C(F)(F)Br)n1 [Example 1, 3-(bromodifluoromethylsulfonyl)-1-(N,N-diethylcarbamoyl)-1,2,4-triazole]
inhibition at 10 g/ha (DATST (jimsonweed); 10 g/ha): 0%
inhibition at 30 g/ha (DATST (jimsonweed); 30 g/ha): 0%
inhibition at 100 g/ha (DATST (jimsonweed); 100 g/ha): 0%
inhibition at 300 g/ha (DATST (jimsonweed); 300 g/ha): 40%
inhibition at 900 g/ha (DATST (jimsonweed); 900 g/ha): 95%
PPI activity (GR80) DATST (DATST (jimsonweed)): 30 g/ha
inhibition at 30 g/ha ([1]; 30 g/ha): 70%
inhibition at 100 g/ha ([1]; 100 g/ha): 100%
inhibition at 300 g/ha ([1]; 300 g/ha): 100%
inhibition at 900 g/ha ([1]; 900 g/ha): 100%
PPI activity GR80, GALAP [1]: 100 g/ha
Post-emergence activity GR80, AGRRE [2]: [empty]
inhibition at 30 g/ha (LOLMG (annual ryegrass); 30 g/ha): 95%
inhibition at 100 g/ha (LOLMG (annual ryegrass); 100 g/ha): 95%
inhibition at 300 g/ha (LOLMG (annual ryegrass); 300 g/ha): 100%
inhibition at 900 g/ha (LOLMG (annual ryegrass); 900 g/ha): 100%
PPI activity GR80, LOLMG (LOLMG (annual ryegrass)): 300 g/ha
inhibition at 30 g/ha ([3]; 30 g/ha): 0%
inhibition at 100 g/ha ([3]; 100 g/ha): 0%
inhibition at 300 g/ha ([3]; 300 g/ha): 40%
inhibition at 900 g/ha ([3]; 900 g/ha): 60%
PPI activity GR80, AEGCY [3]: [empty]
inhibition at 30 g/ha (barley (HORVX); 30 g/ha): 0%
inhibition at 100 g/ha (barley (HORVX); 100 g/ha): 10%
inhibition at 300 g/ha (barley (HORVX); 300 g/ha): 30%
inhibition at 900 g/ha (barley (HORVX); 900 g/ha): 50%
Post-emergence activity GR80, AGSST [4]: [empty]

CCSC(F)(F)S(=O)(=O)c1ncn(C(=O)N(CC)CC)n1 [Example 8, 1-(N,N-diethylcarbamoyl)-3-[difluoro(ethylthio)methylsulfonyl]-1,2,4-triazole]
inhibition at 30 g/ha (DATST (jimsonweed); 30 g/ha): 30%
inhibition at 100 g/ha (DATST (jimsonweed); 100 g/ha): 60%
inhibition at 300 g/ha (DATST (jimsonweed); 300 g/ha): 100%
inhibition at 900 g/ha (DATST (jimsonweed); 900 g/ha): 100%
PPI activity (GR80) DATST (DATST (jimsonweed)): 100 g/ha
inhibition at 30 g/ha ([1]; 30 g/ha): 0%
inhibition at 100 g/ha ([1]; 100 g/ha): 100%
inhibition at 300 g/ha ([1]; 300 g/ha): 100%
inhibition at 900 g/ha ([1]; 900 g/ha): 100%
PPI activity GR80, GALAP [1]: 100 g/ha
Post-emergence activity GR80, AGRRE [2]: [empty]
inhibition at 30 g/ha (LOLMG (annual ryegrass); 30 g/ha): 35%
inhibition at 100 g/ha (LOLMG (annual ryegrass); 100 g/ha): 100%
inhibition at 300 g/ha (LOLMG (annual ryegrass); 300 g/ha): 100%
inhibition at 900 g/ha (LOLMG (annual ryegrass); 900 g/ha): 100%
PPI activity GR80, LOLMG (LOLMG (annual ryegrass)): 100 g/ha
inhibition at 30 g/ha ([3]; 30 g/ha): 0%
inhibition at 100 g/ha ([3]; 100 g/ha): 50%
inhibition at 300 g/ha ([3]; 300 g/ha): 40%
inhibition at 900 g/ha ([3]; 900 g/ha): 20%
PPI activity GR80, AEGCY [3]: [empty]
inhibition at 30 g/ha (barley (HORVX); 30 g/ha): 0%
inhibition at 100 g/ha (barley (HORVX); 100 g/ha): 0%
inhibition at 300 g/ha (barley (HORVX); 300 g/ha): 10%
inhibition at 900 g/ha (barley (HORVX); 900 g/ha): 60%
Post-emergence activity GR80, AGSST [4]: [empty]

CCN(CC)C(=O)n1cnc(S(=O)(=O)C(F)(F)C(F)(F)SC)n1 [Example 14]
Post-emergence activity GR80, AGRRE [2]: [empty]
Post-emergence activity GR80, AGSST [4]: 300 g/ha

CCN(CC)C(=O)n1cnc(S(=O)(=O)C(F)F)n1 [Example 15, 1-(N,N-diethylcarbamoyl)-3-(difluoromethylsulfonyl)-1,2,4-triazole]
inhibition at 10 g/ha (DATST (jimsonweed); 10 g/ha): 0%
inhibition at 30 g/ha (DATST (jimsonweed); 30 g/ha): 0%
inhibition at 100 g/ha (DATST (jimsonweed); 100 g/ha): 0%
inhibition at 300 g/ha (DATST (jimsonweed); 300 g/ha): 65%
inhibition at 900 g/ha (DATST (jimsonweed); 900 g/ha): 90%
PPI activity (GR80) DATST (DATST (jimsonweed)): 300 g/ha
PPI activity GR80, GALAP [1]: 30 g/ha
Post-emergence activity GR80, AGRRE [2]: [empty]
PPI activity GR80, LOLMG (LOLMG (annual ryegrass)): 100 g/ha
PPI activity GR80, AEGCY [3]: [empty]
Post-emergence activity GR80, AGSST [4]: [empty]

CCN(CC)C(=O)n1cnc(S(=O)(=O)C(F)(F)C(F)F)n1 [Example 16]
Percent inhibition DATST (DATST (jimsonweed); 10 g/ha): 0%
Percent inhibition DATST (DATST (jimsonweed); 30 g/ha): 0%
Percent inhibition DATST (DATST (jimsonweed); 100 g/ha): 20%
Percent inhibition DATST (DATST (jimsonweed); 300 g/ha): 70%
Percent inhibition DATST (DATST (jimsonweed); 900 g/ha): 100%
PPI activity (GR80) DATST (DATST (jimsonweed)): 100 g/ha
PPI activity GR80, GALAP [1]: 100 g/ha
Percent inhibition GALAP ([1]; 10 g/ha): 0%
Percent inhibition GALAP ([1]; 30 g/ha): 20%
Percent inhibition GALAP ([1]; 100 g/ha): 100%
Percent inhibition GALAP ([1]; 300 g/ha): 100%
Percent inhibition GALAP ([1]; 900 g/ha): 100%
PPI activity GR80, LOLMG (LOLMG (annual ryegrass)): 300 g/ha
Percent inhibition LOLMG (LOLMG (annual ryegrass); 10 g/ha): 45%
Percent inhibition LOLMG (LOLMG (annual ryegrass); 30 g/ha): 35%
Percent inhibition LOLMG (LOLMG (annual ryegrass); 100 g/ha): 90%
Percent inhibition LOLMG (LOLMG (annual ryegrass); 300 g/ha): 95%
Percent inhibition LOLMG (LOLMG (annual ryegrass); 900 g/ha): 100%
PPI activity GR80, AEGCY [3]: 300 g/ha
Percent inhibition AEGCY ([3]; 10 g/ha): 0%
Percent inhibition AEGCY ([3]; 30 g/ha): 0%
Percent inhibition AEGCY ([3]; 100 g/ha): 0%
Percent inhibition AEGCY ([3]; 300 g/ha): 20%
Percent inhibition AEGCY ([3]; 900 g/ha): 60%
Percent inhibition HORVX (barley (HORVX); 10 g/ha): 0%
Percent inhibition HORVX (barley (HORVX); 30 g/ha): 0%
Percent inhibition HORVX (barley (HORVX); 100 g/ha): 10%
Percent inhibition HORVX (barley (HORVX); 300 g/ha): 25%
Percent inhibition HORVX (barley (HORVX); 900 g/ha): 20%
